From ChEMBL document CHEMBL5653631, “A Potent and Selective ULK1 Inhibitor Suppresses Autophagy and Sensitizes Cancer Cells to Nutrient Stress” (iScience, 2018)
Blank lines part the entries; values can stand above or below the compound they belong to.

Experiments:
[1] = target: T1, Dual specificity tyrosine-phosphorylation-regulated kinase 3 (Homo sapiens) (UniProt O43781); assay: Inhibition of human recombinant DYRK3 at 500 nM related to control ULK1
T1 sequence (whole entry): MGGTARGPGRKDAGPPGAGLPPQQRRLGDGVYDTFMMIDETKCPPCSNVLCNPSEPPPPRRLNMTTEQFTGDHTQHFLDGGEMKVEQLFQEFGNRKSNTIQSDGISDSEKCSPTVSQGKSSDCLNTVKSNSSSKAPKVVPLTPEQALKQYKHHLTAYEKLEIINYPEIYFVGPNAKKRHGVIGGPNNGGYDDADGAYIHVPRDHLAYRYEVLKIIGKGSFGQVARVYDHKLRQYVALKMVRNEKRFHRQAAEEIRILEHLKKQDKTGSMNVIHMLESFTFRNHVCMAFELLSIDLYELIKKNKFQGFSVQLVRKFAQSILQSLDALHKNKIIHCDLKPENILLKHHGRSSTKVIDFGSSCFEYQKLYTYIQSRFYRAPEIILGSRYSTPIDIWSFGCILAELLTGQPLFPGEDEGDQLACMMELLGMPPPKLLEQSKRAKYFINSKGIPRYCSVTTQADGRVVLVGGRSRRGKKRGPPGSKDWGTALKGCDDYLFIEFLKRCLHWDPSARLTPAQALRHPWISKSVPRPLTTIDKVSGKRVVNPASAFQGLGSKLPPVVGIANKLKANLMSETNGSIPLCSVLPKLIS

[2] = target: Serine/threonine-protein kinase 32A (Homo sapiens) (UniProt Q8WU08); assay: Inhibition of human recombinant YANK1 at 500 nM related to control ULK1
[3] = target: Ephrin type-A receptor 7 (Homo sapiens) (UniProt Q15375); assay: Inhibition of human recombinant EphA7 at 500 nM related to control ULK1
[4] = target: MAP/microtubule affinity-regulating kinase 3 (Homo sapiens) (UniProt P27448); assay: Inhibition of human recombinant MARK3 at 500 nM in presence of ATP by radiometric assay relative to control
[5] = target: Serine/threonine-protein kinase 32C (Homo sapiens) (UniProt Q86UX6); assay: Inhibition of human recombinant YANK3 at 15 nM in presence of ATP by radiometric assay relative to control
[6] = target: T2, Tyrosine-protein kinase JAK3 (Homo sapiens) (UniProt P52333); assay: Inhibition of human recombinant JAK3 at 40 nM related to control ULK1
T2 sequence (whole entry): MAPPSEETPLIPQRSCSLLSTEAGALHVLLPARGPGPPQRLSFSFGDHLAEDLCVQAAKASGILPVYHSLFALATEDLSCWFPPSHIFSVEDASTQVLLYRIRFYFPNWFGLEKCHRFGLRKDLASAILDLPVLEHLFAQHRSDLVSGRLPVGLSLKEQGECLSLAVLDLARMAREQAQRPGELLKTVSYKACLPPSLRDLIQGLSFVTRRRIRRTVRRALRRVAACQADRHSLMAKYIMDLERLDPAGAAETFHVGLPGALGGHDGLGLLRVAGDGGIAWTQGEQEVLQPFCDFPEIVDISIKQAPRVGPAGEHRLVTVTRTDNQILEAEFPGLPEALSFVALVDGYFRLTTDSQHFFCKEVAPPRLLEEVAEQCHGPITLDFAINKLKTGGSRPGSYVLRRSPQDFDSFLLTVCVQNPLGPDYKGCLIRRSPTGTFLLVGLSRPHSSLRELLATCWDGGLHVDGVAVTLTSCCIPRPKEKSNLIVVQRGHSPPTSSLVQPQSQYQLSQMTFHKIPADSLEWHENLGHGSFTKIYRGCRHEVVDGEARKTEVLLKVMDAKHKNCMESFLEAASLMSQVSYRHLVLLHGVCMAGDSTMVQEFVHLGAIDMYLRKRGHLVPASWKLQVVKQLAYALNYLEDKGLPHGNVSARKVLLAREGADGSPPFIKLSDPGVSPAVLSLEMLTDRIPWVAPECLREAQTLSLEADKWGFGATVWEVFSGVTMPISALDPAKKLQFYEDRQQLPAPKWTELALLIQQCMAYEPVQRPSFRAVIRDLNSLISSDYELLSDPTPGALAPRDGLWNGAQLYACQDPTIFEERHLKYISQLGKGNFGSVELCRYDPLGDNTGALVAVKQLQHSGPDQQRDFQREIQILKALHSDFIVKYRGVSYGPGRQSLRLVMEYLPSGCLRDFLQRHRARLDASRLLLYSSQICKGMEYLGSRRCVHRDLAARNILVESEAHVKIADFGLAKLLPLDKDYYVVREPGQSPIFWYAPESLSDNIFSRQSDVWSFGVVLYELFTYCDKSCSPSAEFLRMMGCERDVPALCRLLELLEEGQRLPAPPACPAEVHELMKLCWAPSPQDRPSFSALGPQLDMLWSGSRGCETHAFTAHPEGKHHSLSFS

[7] = target: T3, Serine/threonine-protein kinase PLK4 (Homo sapiens) (UniProt O00444); assay: Inhibition of human recombinant PLK4 at 40 nM in presence of ATP by radiometric assay relative to control
T3 sequence (whole entry): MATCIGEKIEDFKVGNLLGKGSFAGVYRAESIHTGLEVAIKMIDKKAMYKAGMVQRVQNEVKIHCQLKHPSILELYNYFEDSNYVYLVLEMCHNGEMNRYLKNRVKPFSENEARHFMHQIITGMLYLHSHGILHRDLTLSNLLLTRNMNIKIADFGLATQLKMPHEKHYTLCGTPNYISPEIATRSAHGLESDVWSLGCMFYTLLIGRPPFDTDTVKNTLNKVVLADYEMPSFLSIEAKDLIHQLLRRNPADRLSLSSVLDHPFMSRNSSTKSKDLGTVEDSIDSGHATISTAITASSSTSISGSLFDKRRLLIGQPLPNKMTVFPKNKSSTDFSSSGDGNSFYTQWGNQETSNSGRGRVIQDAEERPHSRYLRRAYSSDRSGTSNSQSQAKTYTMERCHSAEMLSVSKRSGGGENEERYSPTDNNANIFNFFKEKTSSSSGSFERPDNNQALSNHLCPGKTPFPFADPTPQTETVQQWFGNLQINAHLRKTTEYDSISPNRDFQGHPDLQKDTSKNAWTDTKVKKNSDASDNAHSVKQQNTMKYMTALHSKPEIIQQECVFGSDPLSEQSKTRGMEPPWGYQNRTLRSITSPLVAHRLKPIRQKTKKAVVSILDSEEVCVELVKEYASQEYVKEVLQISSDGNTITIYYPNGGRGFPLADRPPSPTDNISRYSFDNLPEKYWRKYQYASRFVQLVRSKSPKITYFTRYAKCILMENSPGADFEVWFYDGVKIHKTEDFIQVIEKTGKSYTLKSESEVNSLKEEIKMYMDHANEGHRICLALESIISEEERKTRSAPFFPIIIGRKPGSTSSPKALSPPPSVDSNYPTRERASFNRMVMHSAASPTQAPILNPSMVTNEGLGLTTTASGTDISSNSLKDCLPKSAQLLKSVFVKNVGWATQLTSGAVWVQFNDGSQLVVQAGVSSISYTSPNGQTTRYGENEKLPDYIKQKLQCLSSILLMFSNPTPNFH

Chain of Serine/threonine-protein kinase 32A (Homo sapiens) (Q8WU08 whole entry): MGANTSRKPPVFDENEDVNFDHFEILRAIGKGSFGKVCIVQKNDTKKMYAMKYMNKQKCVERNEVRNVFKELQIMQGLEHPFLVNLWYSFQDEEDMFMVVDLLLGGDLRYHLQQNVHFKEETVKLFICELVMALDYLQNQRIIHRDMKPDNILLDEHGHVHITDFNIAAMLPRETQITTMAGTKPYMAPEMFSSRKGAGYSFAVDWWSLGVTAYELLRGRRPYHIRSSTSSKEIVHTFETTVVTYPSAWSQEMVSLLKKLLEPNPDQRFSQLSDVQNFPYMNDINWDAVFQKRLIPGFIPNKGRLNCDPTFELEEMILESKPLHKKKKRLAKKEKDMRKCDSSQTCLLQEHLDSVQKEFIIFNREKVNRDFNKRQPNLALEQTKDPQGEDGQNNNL
Chain of Ephrin type-A receptor 7 (Homo sapiens) (Q15375 28-998 limits assumed): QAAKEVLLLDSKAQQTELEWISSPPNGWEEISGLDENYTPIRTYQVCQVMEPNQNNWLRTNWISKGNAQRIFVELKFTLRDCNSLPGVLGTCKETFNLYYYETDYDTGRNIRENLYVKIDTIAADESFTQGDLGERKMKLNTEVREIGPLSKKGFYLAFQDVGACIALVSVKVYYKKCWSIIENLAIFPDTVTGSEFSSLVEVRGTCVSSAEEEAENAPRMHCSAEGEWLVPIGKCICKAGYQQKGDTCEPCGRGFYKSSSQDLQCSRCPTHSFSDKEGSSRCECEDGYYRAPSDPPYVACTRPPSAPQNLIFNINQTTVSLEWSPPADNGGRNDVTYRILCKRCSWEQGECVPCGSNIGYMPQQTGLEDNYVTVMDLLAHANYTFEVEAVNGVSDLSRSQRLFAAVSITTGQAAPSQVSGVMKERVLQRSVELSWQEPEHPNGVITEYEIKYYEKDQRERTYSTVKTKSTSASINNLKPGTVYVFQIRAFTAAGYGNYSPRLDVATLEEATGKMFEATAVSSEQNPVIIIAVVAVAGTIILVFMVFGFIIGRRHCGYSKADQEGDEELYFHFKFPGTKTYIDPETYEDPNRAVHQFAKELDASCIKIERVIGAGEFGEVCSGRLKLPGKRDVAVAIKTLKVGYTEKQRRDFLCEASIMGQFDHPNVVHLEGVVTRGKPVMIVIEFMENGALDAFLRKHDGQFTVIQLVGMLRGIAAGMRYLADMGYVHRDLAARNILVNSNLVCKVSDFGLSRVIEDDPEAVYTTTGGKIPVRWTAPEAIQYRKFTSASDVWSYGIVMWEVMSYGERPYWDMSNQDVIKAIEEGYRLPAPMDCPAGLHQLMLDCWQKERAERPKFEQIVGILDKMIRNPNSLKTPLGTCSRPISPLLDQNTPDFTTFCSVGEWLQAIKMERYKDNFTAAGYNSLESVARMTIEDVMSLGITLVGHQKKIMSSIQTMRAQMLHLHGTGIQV
Chain of MAP/microtubule affinity-regulating kinase 3 (Homo sapiens) (P27448 whole entry, looked up): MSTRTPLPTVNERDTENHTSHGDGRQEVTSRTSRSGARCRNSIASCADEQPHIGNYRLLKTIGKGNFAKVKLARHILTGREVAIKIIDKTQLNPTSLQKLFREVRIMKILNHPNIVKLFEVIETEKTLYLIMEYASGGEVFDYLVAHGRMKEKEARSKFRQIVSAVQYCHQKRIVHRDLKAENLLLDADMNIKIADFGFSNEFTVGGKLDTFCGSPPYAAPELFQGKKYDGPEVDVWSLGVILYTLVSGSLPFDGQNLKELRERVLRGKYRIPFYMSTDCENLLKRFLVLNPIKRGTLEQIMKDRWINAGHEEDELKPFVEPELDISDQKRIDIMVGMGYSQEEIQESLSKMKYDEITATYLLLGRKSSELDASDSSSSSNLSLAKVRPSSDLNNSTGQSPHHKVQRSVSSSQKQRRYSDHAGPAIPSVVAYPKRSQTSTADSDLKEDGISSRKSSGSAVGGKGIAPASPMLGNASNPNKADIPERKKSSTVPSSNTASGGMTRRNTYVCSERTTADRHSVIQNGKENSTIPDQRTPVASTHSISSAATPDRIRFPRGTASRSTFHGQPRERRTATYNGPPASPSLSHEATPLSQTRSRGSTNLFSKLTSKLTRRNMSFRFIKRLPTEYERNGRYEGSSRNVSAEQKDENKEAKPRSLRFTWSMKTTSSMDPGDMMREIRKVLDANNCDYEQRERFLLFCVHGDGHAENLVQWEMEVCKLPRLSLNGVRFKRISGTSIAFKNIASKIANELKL
Chain of Serine/threonine-protein kinase 32C (Homo sapiens) (Q86UX6 whole entry): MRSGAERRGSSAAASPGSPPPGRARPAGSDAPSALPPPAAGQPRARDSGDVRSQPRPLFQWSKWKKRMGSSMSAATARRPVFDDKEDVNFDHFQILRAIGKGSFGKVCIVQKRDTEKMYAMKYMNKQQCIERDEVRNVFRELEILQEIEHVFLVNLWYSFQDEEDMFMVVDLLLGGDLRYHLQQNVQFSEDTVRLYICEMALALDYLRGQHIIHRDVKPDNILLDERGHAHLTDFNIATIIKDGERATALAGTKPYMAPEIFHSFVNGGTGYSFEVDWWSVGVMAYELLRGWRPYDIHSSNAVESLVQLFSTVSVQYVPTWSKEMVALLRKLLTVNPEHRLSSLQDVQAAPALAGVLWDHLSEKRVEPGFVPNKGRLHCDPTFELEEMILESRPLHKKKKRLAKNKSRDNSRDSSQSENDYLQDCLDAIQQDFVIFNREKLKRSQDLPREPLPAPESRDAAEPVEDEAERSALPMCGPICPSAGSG

- fold change (FC) [1]: 0
- fold change (FC) [2]: 0
- fold change (FC) [3]: 0
- inhibition [4]: 45%
SMILES: CNC(=O)c1ccccc1Oc1nc(Nc2cc(OC)c(OC)c(OC)c2)ncc1Br

- inhibition [5]: 3%
SMILES: CC(C)[C@H](NC(=O)c1cc(-c2cnn3cc(-c4ccc(OCCN5CCCCC5)cc4)cnc23)cs1)C(F)(F)F

- fold change (FC) [6]: 0
- inhibition [7]: 7%
SMILES: O=C(N[C@@H](C1CC1)C(F)(F)F)c1cc(-c2cnn3cc(-c4ccc(F)cc4)cnc23)cs1
